From US9452220B2, “Coupling compounds of NSAID anti-inflammatory and analgesic drugs and EGFR kinase inhibitors, synthesis methods and applications thereof” (Guangzhou Institutes of Biomedicine and Health, Chinese …, priority 2014, dated 2016)

What was measured:
[1] = tested on: HCC827 human non-small cell lung cancer cells; test: MTT cell activity assay, HCC827 cells; format: cell-based; conditions: 72 hrs with compound, absorption at 570 nm or 490 nm
Description: (§1) H1975/HCC827: human non-small cell lung cancer cells, PBS, MTT, DMEM culture medium, pancreatin, a multichannel pipette, a vortex mixer, a microplate reader, a biosafety cabinet, a 5% CO2 cell culture incubator, a cell counter, a microscope, a thermostatic water bath, and a 96-pore plate.
(§2) 1. H1975/HCC827 cells was cleaned with PBS, digested with pancreatin, centrifuged at room temperature for 5 min at 1000 rpm, re-suspended with an appropriate amount of culture medium, and counted by a cell counting plate. The cells were inoculated to the 96-pore plate by the multichannel pipette at 1000-2000 cells/pore/100 μl, with 6 complex pores for each concentration and totally 6 concentration gradients. The basis of the number of cells: upon final test, OD570 was between 0.2-0.8 (Lambert-Beer's Law).
(§3) 2. The compounds were prepared into […] of mother liquor by using DMSO. 10 μl of mother liquor was added into 90 μl of DMSO, and the mixture was uniformly mixed by the vortex mixer and diluted in turn for 5 times to obtain DMSO stock solution. The stock solution was stored at 4° C. for standby. The stock solution was uniformly mixed again before use and then added into a complete culture medium in 1:500 to serve as working solution, and then the mixture was mixed uniformly by the vortex mixer. The working solution needs to be immediately used after prepared well to avoid precipitation after long-term storage.
(§4) 3. The 96-pore plate was cultured in the cell incubator for 24 hrs, then added with 100 μl of the working solution prepared from the compounds, and continued to be cultured together for 72 hrs.
(§5) 4. The upper-layer culture medium was removed carefully, then 100 μl of culture medium containing MTT (0.5 mg/ml) was added again, and the culture medium was placed in the incubator for 4 hrs. The culture medium was removed completely, then 100 μl of DMSO was added, and the mixture was shocked uniformly. Preparation of MTT: 1.25 g of MTT was added into 250 ml of PBS, and then the mixture was mixed uniformly and stored away from light at 4° C.
(§6) 5. The light absorption value at 570 nm or 490 nm was detected by the microplate reader. EC50 was calculated and an added value curve was drawn by Graphpad.

[2] = tested on: H1975 human non-small cell lung cancer cells; test: MTT cell activity assay, H1975 cells; format: cell-based; conditions: NCI-H1975, 72 hrs with compound, absorption at 570 nm or 490 nm
Description: as §1, §2, §3, §4, §5, §6

| EC50 [1] [µM] | EC50 [2] [µM] | Compound |
| --- | --- | --- |
| 0.63 | 95.8 | C#Cc1cccc(Nc2ncnc3cc(OCCOC(=O)Cc4c(C)n(C(=O)c5ccc(Cl)cc5)c5ccc(OC)cc45)c(OCCOC)cc23)c1 [Embodiment 14, 3-(4-(3-ethynylaniline)-6-(2-methoxyethoxy)quinazoline-7-oxy)ethyl-2-(1-(4-chlorobenzoyl)-5-methoxy-2-methyl-1H-indol-3-ene)acetic acid] |
| 0.09 | 27.2 | C#Cc1cccc(Nc2ncnc3cc(OCCOC(=O)C(C)c4ccc5cc(OC)ccc5c4)c(OCCOC)cc23)c1 (stereo not shown) [Embodiment 13, 2-(4-(3-ethynylaniline)-6-(2-methoxyethoxy)quinazoline-7-oxy)ethyl-2-(6-methoxylnaphthyl-2-ene)propanoic acid] |
| – | 805 | C#Cc1cccc(Nc2ncnc3cc(OCCOC(=O)C(C)c4ccc(CC(C)C)cc4)c(OCCOC(=O)C(C)c4ccc(CC(C)C)cc4)cc23)c1 (stereo not shown) [Embodiment 18, 2,2′-(4-(3-ethynylaniline)quinazoline-6,7-diene)di(oxy)bis(ethyl-2,1-diene)-bis(2-(4-isobutylphenyl)propanoic acid)] |
| 0.28 | 8.65 | C#Cc1cccc(Nc2ncnc3cc(OCCOC(=O)C(C)c4ccc(CC(C)C)cc4)c(OCCOC)cc23)c1 (stereo not shown) [Embodiment 10, 2-(4-(3-ethynylaniline)-6-(2-methoxyethoxy)quinazoline-7-oxy)ethyl-2-(4-isobutylphenyl)propanoic acid] |

Continued, molecule first:

| Compound | EC50 [1] [µM] | EC50 [2] [µM] |
| --- | --- | --- |
| C#Cc1cccc(Nc2ncnc3cc(OCCOC(=O)Cc4c(C)n(C(=O)c5ccc(Cl)cc5)c5ccc(OC)cc45)c(OCCOC(=O)Cc4c(C)n(C(=O)c5ccc(Cl)cc5)c5ccc(OC)cc45)cc23)c1 [Embodiment 22, 2,2′-(4-(3-ethynylaniline)quinazoline-6,7-diene)di(oxy)bis(ethyl-2,1-diene)-bis(2-(1-(4-chlorobenzoyl)-5-methoxy-2-methyl-1H-indol-3-ene)acetic acid)] | 3.62 | 55.3 |
| C#Cc1cccc(Nc2ncnc3cc(OCCOC(=O)C(C)c4ccc(C(=O)c5ccccc5)cc4)c(OCCOC(=O)C(C)c4ccc(C(=O)c5ccccc5)cc4)cc23)c1 (stereo not shown) [Embodiment 17, 2,2′-(4-(3-ethynylaniline)quinazoline-6,7-diene)di(oxy)bis(ethyl-2,1-diene)-bis(2-(4-benzoylphenyl)propanoic acid)] | 1.5 | – |
| C#Cc1cccc(Nc2ncnc3cc(OCCOC(=O)c4ccccc4OC(C)=O)c(OCCOC)cc23)c1 [Embodiment 11, 2-(4-(3-ethynylaniline)-6-(2-methoxyethoxy)quinazoline-7-oxy)ethyl-2-acetoxyl benzoic acid] | 0.13 | 13.8 |
| C#Cc1cccc(Nc2ncnc3cc(OCCOC)c(OCCOC(=O)C4=Cc5cc(Cl)c(C(C)(C)C)cc5OC4C(F)(F)F)cc23)c1 (stereo not shown) [Embodiment 4] | 0.61 | 32.9 |
| C#Cc1cccc(Nc2ncnc3cc(OCCOC)c(OCCOC(=O)c4ccccc4OC(C)=O)cc23)c1 [Embodiment 3, 2-(4-(3-ethynylaniline)-7-(2-methoxyethoxy)quinazoline-6-oxy)ethyl-2-acetoxybenzoic acid] | 0.16 | 12.2 |
| C#Cc1cccc(Nc2ncnc3cc(OCCOC(=O)C4=Cc5cc(Cl)c(C(C)(C)C)cc5OC4C(F)(F)F)c(OCCOC(=O)C4=Cc5cc(Cl)c(C(C)(C)C)cc5OC4C(F)(F)F)cc23)c1 (stereo not shown) [Embodiment 21, 2,2′-(4-(3-ethynylaniline)quinazoline-6,7-diene)di(oxy)bis(ethyl-2,1-diene)-bis(7-7-tert-butyl-6-chloro-2-(trifluoromethyl)-2H-pyran-3-carboxylic acid)] | 1.05 | 75.6 |
| C#Cc1cccc(Nc2ncnc3cc(OCCOC(=O)c4ccccc4OC(C)=O)c(OCCOC(=O)c4ccccc4OC(C)=O)cc23)c1 [Embodiment 19, 2,2′-(4-(3-ethynylaniline)quinazoline-6,7-diene)di(oxy)bis(ethyl-2,1-diene)-bis(2-acetoxylbenzoic acid)] | 0.2 | 41.7 |
| C#Cc1cccc(Nc2ncnc3cc(OCCOC(=O)c4ccc(C(=O)Nc5ccc6c(c5)C(C)(C)CCC6(C)C)cc4)c(OCCOC(=O)c4ccc(C(=O)Nc5ccc6c(c5)C(C)(C)CCC6(C)C)cc4)cc23)c1 [Embodiment 24, 2,2′-(4-(3-ethynylaniline)quinazoline-6,7-diene)di(oxy)bis(ethyl-2,1-diene)-bis(4-(5,5,8,8-tetramethyl-5,6,7,8-tetralin-2-alkenylcarbamyl)benzoic acid)] | 1.14 | 52.9 |
